From patent US7279161B2, “Factor IX/factor IXa activating antibodies and antibody derivatives” (Baxter Aktiengesellschaft, priority 1999, dated 2007)
“Also recorded” adds a separate entry of the source.

Columns and labels:
FVIII inhibitor plasma = assay: aPTT based one stage clotting assay in FVIII inhibitor plasma; type: biochemical; conditions: inhibitor plasma 8.1 Bethesda Units per ml
Procedure: […] […] […] After a 4 minute incubation, the reaction was started by the addition of 100 μl CaCl2 (25 mM). To ensure equal conditions, the experiments employing FVIII deficient plasma and FVIII inhibitor plasma were done side by side.
To assay for the procoagulant activity of peptide A1/3 in FVIII inhibitor plasma the following experiment was carried out. We performed a standard aPTT based one stage clotting assay, but instead of FVIII deficient plasma we employed FVIII inhibitor plasma.

factor IXa = molecular target: T1, factor IXa (Bos taurus, UniProt P00741); assay: Chromogenic FVIII assay (COATEST VIII:C/4) with the kit's FIXa/FX; type: biochemical, bovine; conditions: bovine FIXa and FX only; A1/3 24 μM
T1 construct: purchased Chromogenix COATEST VIII:C/4
T1 sequence (P00741 47-192 limits assumed): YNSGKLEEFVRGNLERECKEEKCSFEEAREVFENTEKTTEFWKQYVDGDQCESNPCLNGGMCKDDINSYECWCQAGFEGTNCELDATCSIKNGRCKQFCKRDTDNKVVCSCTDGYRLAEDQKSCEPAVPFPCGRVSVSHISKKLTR
T1 sequence (P00741 228-462 limits assumed): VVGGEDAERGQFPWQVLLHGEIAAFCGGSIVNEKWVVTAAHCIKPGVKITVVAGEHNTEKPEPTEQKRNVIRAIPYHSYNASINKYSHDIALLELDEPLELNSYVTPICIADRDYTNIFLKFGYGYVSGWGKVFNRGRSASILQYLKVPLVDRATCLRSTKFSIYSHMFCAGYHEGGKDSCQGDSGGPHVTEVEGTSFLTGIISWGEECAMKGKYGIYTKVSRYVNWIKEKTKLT
Procedure: In order to assay the FVIII-like activity of anti-FIXa antibodies secreted by hybridoma cells, the commercially available test-kit COATEST VIII:C/4® (Chromogenix) was employed. The assay was done essentially as described by the manufacturer with the following modifications:
To allow high throughput screening, the assay was downscaled to microtiter plate format. Briefly, 25 μl aliquots of hybridoma supernatants were transferred to microtiter plate (Costar, #3598) wells and warmed to 37° C. Chromogenic substrate (S-2222), synthetic thrombin inhibitor (I-2581), factor (F) IXa and FX were reconstituted in sterile water and FIXa/FX was mixed with phospholipids according to the supplier's protocol. Per reaction, 50 μl of the phospholipid/FIXa/FX solution were combined with 25 μl CaCl2 (25 mM) and 50 μl of the substrate/inhibitor cocktail. To start the reaction, 125 μl of the premix were added to the hybridoma supernatant in the microtiter plates and incubated at 37° C. Absorbency at 405 nm and 490 nm of the samples was read at various times (30 min to 12 h) against a reagent blank (MLW, cell culture medium instead of hybridoma supernatant) in a Labsystems iEMS Reader MF™ microtiter plate reader. FVIII-like activity of the samples was calculated by comparing the absorbency of the samples against the absorbency of a diluted FVIII reference standard (IMMUNO AG #5T4AR00) using GENESIS™ software.
Several anti-FIX/FIXa antibody producing hybridoma clones were subcloned up to four times and the resulting monoclonal hybridoma cell line used to produce monoclonal antibody containing supernatant. IgG isotype antibodies derived from these supernatants were purified over affinity columns and dialyzed against TBS (see above). IgM antibodies were used as unpurified supernatant fractions. […] Absorbance at 405 nm and 490 nm of the samples was read at various times (5 min to 6 h) against a reagent blank (cell culture medium instead of hybridoma supernatant) in a Labsystems iEMS Reader MF™ microtiter plate reader using GENESIS™ software. […]

RRREGGGYYVNWYFDRRR [A1/3]
average clotting time (FVIII inhibitor plasma; 1.25 μM, 2.2 nM FIXa): 91 s | clotting time (FVIII inhibitor plasma; 1.25 μM, 2.2 nM FIXa, duplicate 1): 91.3 s | clotting time (FVIII inhibitor plasma; 1.25 μM, 2.2 nM FIXa, duplicate 2): 91.4 s | average clotting time (FVIII inhibitor plasma; 1.25 μM, w/o FIXa): 104 s | clotting time (FVIII inhibitor plasma; 1.25 μM, w/o FIXa, duplicate 1): 104.5 s | clotting time (FVIII inhibitor plasma; 1.25 μM, w/o FIXa, duplicate 2): 104.3 s | average clotting time (FVIII inhibitor plasma; 2.5 μM, 2.2 nM FIXa): 90 s | clotting time (FVIII inhibitor plasma; 2.5 μM, 2.2 nM FIXa, duplicate 1): 90.2 s | clotting time (FVIII inhibitor plasma; 2.5 μM, 2.2 nM FIXa, duplicate 2): 90.5 s | average clotting time (FVIII inhibitor plasma; 2.5 μM, w/o FIXa): 106 s | clotting time (FVIII inhibitor plasma; 2.5 μM, w/o FIXa, duplicate 1): 106.1 s | clotting time (FVIII inhibitor plasma; 2.5 μM, w/o FIXa, duplicate 2): 105.3 s | average clotting time (FVIII inhibitor plasma; 5 μM, 2.2 nM FIXa): 82 s | clotting time (FVIII inhibitor plasma; 5 μM, 2.2 nM FIXa, duplicate 1): 81 s | clotting time (FVIII inhibitor plasma; 5 μM, 2.2 nM FIXa, duplicate 2): 82 s | average clotting time (FVIII inhibitor plasma; 5 μM, w/o FIXa): 101 s | clotting time (FVIII inhibitor plasma; 5 μM, w/o FIXa, duplicate 1): 101.5 s | clotting time (FVIII inhibitor plasma; 5 μM, w/o FIXa, duplicate 2): 101.1 s | average clotting time (FVIII inhibitor plasma; 7.5 μM, 2.2 nM FIXa): 70 s | clotting time (FVIII inhibitor plasma; 7.5 μM, 2.2 nM FIXa, duplicate 1): 68.8 s | clotting time (FVIII inhibitor plasma; 7.5 μM, 2.2 nM FIXa, duplicate 2): 70.9 s | average clotting time (FVIII inhibitor plasma; 7.5 μM, w/o FIXa): 93 s | clotting time (FVIII inhibitor plasma; 7.5 μM, w/o FIXa, duplicate 1): 93.7 s | clotting time (FVIII inhibitor plasma; 7.5 μM, w/o FIXa, duplicate 2): 92.7 s | average clotting time (FVIII inhibitor plasma; 10 μM, 2.2 nM FIXa): 62 s | clotting time (FVIII inhibitor plasma; 10 μM, 2.2 nM FIXa, duplicate 1): 61.3 s | clotting time (FVIII inhibitor plasma; 10 μM, 2.2 nM FIXa, duplicate 2): 61.8 s | average clotting time (FVIII inhibitor plasma; 10 μM, w/o FIXa): 88 s | clotting time (FVIII inhibitor plasma; 10 μM, w/o FIXa, duplicate 1): 88.4 s | clotting time (FVIII inhibitor plasma; 10 μM, w/o FIXa, duplicate 2): 87.9 s | average clotting time (FVIII inhibitor plasma; 12.5 μM, 2.2 nM FIXa): 61 s | clotting time (FVIII inhibitor plasma; 12.5 μM, 2.2 nM FIXa, duplicate 1): 61 s | clotting time (FVIII inhibitor plasma; 12.5 μM, 2.2 nM FIXa, duplicate 2): 60.2 s | average clotting time (FVIII inhibitor plasma; 12.5 μM, w/o FIXa): 86 s | clotting time (FVIII inhibitor plasma; 12.5 μM, w/o FIXa, duplicate 1): 85.8 s | clotting time (FVIII inhibitor plasma; 12.5 μM, w/o FIXa, duplicate 2): 85.3 s | chromogenic FVIII-like activity (FXa generation) without human FIXa (factor IXa): does not react with bovine FIXa and FX; also recorded: does not give rise to any FXa generation
